Test results from patent publication US20250152473A1, “STABLE PLINABULIN FORMULATIONS AND METHODS OF THEIR PREPARATION AND USE” (BeyondSpring Pharmaceuticals, Inc., priority 2022, published 2025).

How the values were obtained:
[1] = Stress test of solid plinabulin, 30 days light storage vs dark control; assay type: physicochemical
Excerpt: This comparative example reports a plinabulin stress test of solid plinabulin showing relative stability to light storage for 30 days. […]

[2] = Light sensitivity study of solid plinabulin; assay type: physicochemical
Excerpt: Table 8 illustrates the stability of solid plinabulin in a light sensitivity study.

[3] = solid, minimum of 1.2 million LUX hours and 200 watts/square meter

CC(C)(C)c1[nH]cnc1/C=c1\[nH]c(=O)/c(=C/c2ccccc2)[nH]c1=O [Plinabulin, (3Z,6Z)-3-Benzylidene-6-{[5-(2-methyl-2-propanyl)-1H-imidazol-4-yl]methylene}-2,5-piperazinedione]
Alcohol Impurity by HPLC ([1]; Control Sample (dark), 0 days): 0.02%
Amide Impurity by HPLC ([1]; Control Sample (dark), 0 days): 0.02%
Appearance ([1]; Control Sample (dark), 0 days): Yellow
Assay by HPLC ([1]; Control Sample (dark), 0 days): 98.9% w/w
Cyano Impurity by HPLC ([1]; Control Sample (dark), 0 days): 0.1%
De-Carboxylate Impurity by HPLC ([1]; Control Sample (dark), 0 days): 0.1%
Ether Impurity by HPLC ([1]; Control Sample (dark), 0 days): 0.02%
Impurity-489-1 by HPLC ([1]; Control Sample (dark), 0 days): 0.1%
Impurity-489-2 by HPLC ([1]; Control Sample (dark), 0 days): 0.1%
Other Unspecified Impurity by HPLC ([1]; Control Sample (dark), 0 days): 0.02%
Total Impurities by HPLC ([1]; Control Sample (dark), 0 days): 0.3%
Water ([1]; Control Sample (dark), 0 days): 0.1%
Alcohol Impurity by HPLC ([1]; Control Sample (dark), 5 days): 0.02%
Amide Impurity by HPLC ([1]; Control Sample (dark), 5 days): 0.02%
Appearance ([1]; Control Sample (dark), 5 days): Yellow
Assay by HPLC ([1]; Control Sample (dark), 5 days): 98.42% w/w
Cyano Impurity by HPLC ([1]; Control Sample (dark), 5 days): 0.11%
De-Carboxylate Impurity by HPLC ([1]; Control Sample (dark), 5 days): 0.09%
Ether Impurity by HPLC ([1]; Control Sample (dark), 5 days): 0.02%
Impurity-489-1 by HPLC ([1]; Control Sample (dark), 5 days): 0.16%
Impurity-489-2 by HPLC ([1]; Control Sample (dark), 5 days): 0.02%
Other Unspecified Impurity by HPLC ([1]; Control Sample (dark), 5 days): 0.02%
Total Impurities by HPLC ([1]; Control Sample (dark), 5 days): 0.36%
Water ([1]; Control Sample (dark), 5 days): 0.05%
Alcohol Impurity by HPLC ([1]; Control Sample (dark), 10 days): 0.02%
Amide Impurity by HPLC ([1]; Control Sample (dark), 10 days): 0.02%
Appearance ([1]; Control Sample (dark), 10 days): Yellow
Assay by HPLC ([1]; Control Sample (dark), 10 days): 99.33% w/w
Cyano Impurity by HPLC ([1]; Control Sample (dark), 10 days): 0.12%
De-Carboxylate Impurity by HPLC ([1]; Control Sample (dark), 10 days): 0.09%
Ether Impurity by HPLC ([1]; Control Sample (dark), 10 days): 0.02%
Impurity-489-1 by HPLC ([1]; Control Sample (dark), 10 days): 0.12%
Impurity-489-2 by HPLC ([1]; Control Sample (dark), 10 days): 0.02%
Other Unspecified Impurity by HPLC ([1]; Control Sample (dark), 10 days): 0.02%
Total Impurities by HPLC ([1]; Control Sample (dark), 10 days): 0.32%
Water ([1]; Control Sample (dark), 10 days): 0.05%
Alcohol Impurity by HPLC ([1]; Control Sample (dark), 30 days): 0.02%
Amide Impurity by HPLC ([1]; Control Sample (dark), 30 days): 0.02%
Appearance ([1]; Control Sample (dark), 30 days): Yellow
Assay by HPLC ([1]; Control Sample (dark), 30 days): 99.29% w/w
Cyano Impurity by HPLC ([1]; Control Sample (dark), 30 days): 0.11%
De-Carboxylate Impurity by HPLC ([1]; Control Sample (dark), 30 days): 0.09%
Ether Impurity by HPLC ([1]; Control Sample (dark), 30 days): 0.02%
Impurity-489-1 by HPLC ([1]; Control Sample (dark), 30 days): 0.15%
Impurity-489-2 by HPLC ([1]; Control Sample (dark), 30 days): 0.02%
Other Unspecified Impurity by HPLC ([1]; Control Sample (dark), 30 days): 0.05%
Total Impurities by HPLC ([1]; Control Sample (dark), 30 days): 0.36%
Water ([1]; Control Sample (dark), 30 days): 0.05%
Alcohol Impurity by HPLC ([1]; Photo Sample, 0 days): 0.02%
Amide Impurity by HPLC ([1]; Photo Sample, 0 days): 0.02%
Assay by HPLC ([1]; Photo Sample, 0 days): 98.9% w/w
Cyano Impurity by HPLC ([1]; Photo Sample, 0 days): 0.1%
De-Carboxylate Impurity by HPLC ([1]; Photo Sample, 0 days): 0.1%
Ether Impurity by HPLC ([1]; Photo Sample, 0 days): 0.02%
Impurity-489-1 by HPLC ([1]; Photo Sample, 0 days): 0.1%
Impurity-489-2 by HPLC ([1]; Photo Sample, 0 days): 0.1%
Other Unspecified Impurity by HPLC ([1]; Photo Sample, 0 days): 0.02%
Total Impurities by HPLC ([1]; Photo Sample, 0 days): 0.3%
Water ([1]; Photo Sample, 0 days): 0.1%
Alcohol Impurity by HPLC ([1]; Photo Sample, 5 days): 0.02%
Amide Impurity by HPLC ([1]; Photo Sample, 5 days): 0.02%
Assay by HPLC ([1]; Photo Sample, 5 days): 99.37% w/w
Cyano Impurity by HPLC ([1]; Photo Sample, 5 days): 0.11%
De-Carboxylate Impurity by HPLC ([1]; Photo Sample, 5 days): 0.09%
Ether Impurity by HPLC ([1]; Photo Sample, 5 days): 0.02%
Impurity-489-1 by HPLC ([1]; Photo Sample, 5 days): 0.10%
Impurity-489-2 by HPLC ([1]; Photo Sample, 5 days): 0.05%
Other Unspecified Impurity by HPLC ([1]; Photo Sample, 5 days): 0.02%
Total Impurities by HPLC ([1]; Photo Sample, 5 days): 0.3%
Water ([1]; Photo Sample, 5 days): 0.05%
Alcohol Impurity by HPLC ([1]; Photo Sample, 10 days): 0.02%
Amide Impurity by HPLC ([1]; Photo Sample, 10 days): 0.02%
Assay by HPLC ([1]; Photo Sample, 10 days): 99.36% w/w
Cyano Impurity by HPLC ([1]; Photo Sample, 10 days): 0.12%
De-Carboxylate Impurity by HPLC ([1]; Photo Sample, 10 days): 0.08%
Ether Impurity by HPLC ([1]; Photo Sample, 10 days): 0.02%
Impurity-489-1 by HPLC ([1]; Photo Sample, 10 days): 0.07%
Impurity-489-2 by HPLC ([1]; Photo Sample, 10 days): 0.05%
Other Unspecified Impurity by HPLC ([1]; Photo Sample, 10 days): 0.02%
Total Impurities by HPLC ([1]; Photo Sample, 10 days): 0.27%
Water ([1]; Photo Sample, 10 days): 0.05%
Alcohol Impurity by HPLC ([1]; Photo Sample, 30 days): 0.02%
Amide Impurity by HPLC ([1]; Photo Sample, 30 days): 0.02%
Assay by HPLC ([1]; Photo Sample, 30 days): 99.17% w/w
Cyano Impurity by HPLC ([1]; Photo Sample, 30 days): 0.11%
De-Carboxylate Impurity by HPLC ([1]; Photo Sample, 30 days): 0.09%
Ether Impurity by HPLC ([1]; Photo Sample, 30 days): 0.02%
Impurity-489-1 by HPLC ([1]; Photo Sample, 30 days): 0.06%
Impurity-489-2 by HPLC ([1]; Photo Sample, 30 days): 0.05%
Other Unspecified Impurity by HPLC ([1]; Photo Sample, 30 days): 0.1%
Total Impurities by HPLC ([1]; Photo Sample, 30 days): 0.6%
Water ([1]; Photo Sample, 30 days): 0.05%
Light sensitivity ([2]; solid plinabulin): not light sensitive
Appearance ([2]; solid, Dark Control): Yellow Solid.
HPLC (% AUC) at 214 nm ([2]; solid, Dark Control): 99.3% AUC
HPLC (% AUC) at 250 nm ([2]; solid, Dark Control): 99.5% AUC
HPLC (% AUC) at 370 nm ([2]; solid, Dark Control): 99.4% AUC
Impurity at 214 nm, rrt 0.86 ([2]; solid, Dark Control): 0.21% @rrt 0.86
Impurity at 214 nm, rrt 0.97 ([2]; solid, Dark Control): 0.33% @rrt 0.97
Impurity at 214 nm, rrt 1.17 ([2]; solid, Dark Control): 0.06% @rrt 1.17
Impurity at 214 nm, rrt 1.27 ([2]; solid, Dark Control): 0.04% @rrt 1.27
KF ([2]; solid, Dark Control): 5.1%
Single impurity >1% AUC at 214 nm ([2]; solid, Dark Control): No single impurity
Appearance ([2]; solid, Time 0): Yellow Solid.
HPLC (% AUC) at 214 nm ([2]; solid, Time 0): 99.2% AUC
HPLC (% AUC) at 250 nm ([2]; solid, Time 0): 99.4% AUC
HPLC (% AUC) at 370 nm ([2]; solid, Time 0): 99.4% AUC
Impurity at 214 nm, rrt 0.86 ([2]; solid, Time 0): 0.21% @rrt 0.86
Impurity at 214 nm, rrt 0.96 ([2]; solid, Time 0): 0.36% @rrt 0.96
Impurity at 214 nm, rrt 1.14 ([2]; solid, Time 0): 0.06% @rrt 1.14
Impurity at 214 nm, rrt 1.18 ([2]; solid, Time 0): 0.05% @rrt 1.18
Impurity at 214 nm, rrt 1.19 ([2]; solid, Time 0): 0.02% @rrt 1.19
Impurity at 214 nm, rrt 1.28 ([2]; solid, Time 0): 0.02% @rrt 1.28
KF ([2]; solid, Time 0): 5.1%
Single impurity >1% AUC at 214 nm ([2]; solid, Time 0): No single impurity
Appearance [2, 3]: Yellow Solid.
HPLC (% AUC) at 214 nm [2, 3]: 99.4% AUC
HPLC (% AUC) at 250 nm [2, 3]: 99.4% AUC
HPLC (% AUC) at 370 nm [2, 3]: 99.5% AUC
Impurity at 214 nm, rrt 0.40 [2, 3]: 0.02% @rrt 0.40
Impurity at 214 nm, rrt 0.49 [2, 3]: 0.05% @rrt 0.49
Impurity at 214 nm, rrt 0.68 [2, 3]: 0.02% @rrt 0.68
Impurity at 214 nm, rrt 0.86 [2, 3]: 0.08% @rrt 0.86
Impurity at 214 nm, rrt 0.97 [2, 3]: 0.29% @rrt 0.97
Impurity at 214 nm, rrt 1.17 [2, 3]: 0.05% @rrt 1.17
Impurity at 214 nm, rrt 1.27 [2, 3]: 0.02% @rrt 1.27
KF [2, 3]: 5.0%
Single impurity >1% AUC at 214 nm [2, 3]: No single impurity
